This note sets out measurements from US20240209011A1, “HETEROAROMATIC PHOSPHONIUM SALTS FOR TREATING CANCER” (FLORATEK PHARMA S.A., priority 2021, published 2024).

Common to all, as to type: cell-based
Experiment [1] deals with K-562. The experiment is described as follows: Cell viability assay (CellTiter-Blue/CellTiter-Glow). Conditions: Homo sapiens, K562; leukaemia cell line K-562; absolute IC50; 72 h. How it is done:
(§1) Antitumor activity of the compounds and doxorubicin as a positive control was assessed by using the CellTiter-Blue Cell Viability Assay (Promega, #G8082) or CellTiter-Glow® Luminescent Cell Viability assay (Promega #G7572) according to the manufacturer's instructions. The compounds were tested at 5 or 6 concentrations in half-log increments (highest concentration 30 μM or 100 μM) in duplicate or triplicate well conditions.
(§2) Tumor cells were grown at 37° C. in a humidified atmosphere with 5% CO2 in RPMI 1640 or DMEM medium, supplemented with 10% (v/v) fetal calf serum and 50 μg/ml gentamicin for up to 20 passages, and were passaged once or twice weekly. Cells were harvested using TrypLE or PBS buffer containing 1 mM EDTA, and the percentage of viable cells is determined using a CASY Model TI cell counter (OMNI Life Science). Cells were harvested from exponential phase cultures, counted and plated in 96 well flat-bottom microtiter plates at a cell density depending on the cell line's growth rate (4,000-20,000 cells/well depending on the cell line's growth rate, up to 60,000 for hematological cancer cell lines) in RPMI 1640 or DMEM medium supplemented with 10% (v/v) fetal calf serum and 50 μg/ml gentamicin (140 μl/well). Cultures were incubated at 37° C. and 5% CO2 in a humidified atmosphere. After 24 h, 10 μl of test compounds or control medium were added, and left on the cells for another 72 h. Compounds were serially diluted in DMSO, transferred in cell culture medium, and added to the assay plates. The DMSO concentration was kept constant at <0.3% v/v across the assay plate. Viability of cells was quantified by the CellTiter-Blue® cell viability assay (Promega G8081) or CellTiter-Glow® Luminescent Cell Viability assay (Promega #G7572). Fluorescence (FU) was measured by using the EnSpire® multimode plate reader (Perkin Elmer) (excitation X=570 nm, emission λ=600 nm). Luminescence was measured with a microplate luminometer (Promega or PerkinElmer).
(§3) Sigmoidal concentration-response curves were fitted to the data points (test-versus-control, T/C values) obtained for each tumor model using 4 parameter non-linear curve fit (Charles River DRS Datawarehouse Software) or with GraphPad prism 5.02 software. IC50 values are reported as absolute IC50 values, being the concentration of test compound at the intersection of the concentration-response curves with T/C=50% Cell lines tested are presented in Table 1.

For experiment [2], the system named is HCT-15. Described as above. The settings on record: Homo sapiens; colon carcinoma cell line HCT-15; absolute IC50; 72 h. How it is done: as §1, §2, §3
Experiment [3] relates to NCI-H460. The experiment is described as above. Conditions: Homo sapiens; lung carcinoma cell line NCI-H460; absolute IC50; 72 h. How it is done: as §1, §2, §3
Experiment [4] has as its system SF-268. The experiment is described as above. The settings on record: Homo sapiens; brain carcinoma cell line SF-268; absolute IC50; 72 h. How it is done: as §1, §2, §3
Experiment [5] has as its system Mia-Pa-Ca-2. The description is as above. Conditions: Homo sapiens, MIA PaCa-2; pancreatic carcinoma cell line Mia-Pa-Ca-2; absolute IC50; 72 h. How it is done:
as §1, §2, §3

The subject of experiment [6] is SK-OV-3. The description is as above. The settings on record: Homo sapiens; ovarian carcinoma cell line SK-OV-3; absolute IC50; 72 h. The method, then: as §1, §2, §3
Experiment [7] deals with HT-29. The description is as above. Conditions: Homo sapiens; colon carcinoma cell line HT-29; absolute IC50; 72 h. The method, then:
as §1, §2, §3

The subject of experiment [8] is A549. Described as above. The settings on record: Homo sapiens; lung carcinoma cell line A549; absolute IC50; 72 h. The method, then: as §1, §2, §3
In experiment [9] the test system is CALU-6. The experiment is described as above. The settings on record: Homo sapiens; lung carcinoma cell line CALU-6; absolute IC50; 72 h. The method, then: as §1, §2, §3
For experiment [10], the system named is U-87. The experiment is described as above. Conditions: Homo sapiens, U-87 MG; brain carcinoma cell line U-87; absolute IC50; 72 h. The method, then: as §1, §2, §3
The subject of experiment [11] is OVCAR-3. The experiment is described as above. The settings on record: Homo sapiens; ovarian carcinoma cell line OVCAR-3; absolute IC50; 72 h. The method, then:
as §1, §2, §3

Experiment [12] has as its system H1299. Described as above. Conditions: Homo sapiens, NCI-H1299; lung carcinoma cell line H1299; absolute IC50; 72 h. How it is done:
as §1, §2, §3

The test system of experiment [13] is lung PDX. The experiment is described as follows: Activity against lung PDX. Conditions: lung PDX growth; Table 16. The method, then:
PDX-derived cell cultures were obtained from tumors explanted from mice and isolated by mechanical and enzymatic dissociation. […] Cells were harvested and seeded in 96-wells plates at a density of 1.25 to 5×10^3 cells/well for cytotoxicity assays. Cells were incubated 48 h at 37° C. prior to addition of test molecules and vehicle (DMSO, 0.1%) at desired final concentrations. Cell viability was assessed before drugs' addition (To) and 5 days after test molecules addition by measuring ATP cell content using CellTiter-Glo® Luminescent Cell Viability Assay (Promega) according to the manufacturer's instructions. Luciferase activity was measured on a luminometer (PerkinElmer® EnVision™). Each concentration of compounds was tested in triplicate.
Viability was calculated as a percentage of ATP value compared to vehicle treated controls.
For PDX primary cell cultures, the tumour tissue was washed with PBS containing antibiotic-antimycotic and non-tumour tissue and necrotic tumour tissues were separated. The tumour tissue was transferred to a new dish and cut into 1-2 mm^3 fragments, resuspended in RPMI-1640 medium and centrifuged at 1,200 rpm for 6 min at room temperature. The pelleted material was resuspended with 15 mL of Tumour Cell Digestion Solution and incubated at 37° C. for 1 hour with agitation. Following further addition of media, centrifugation and passage through a […] cell strainer, the homogenous cell mixture was layered onto 15 mL of Ficoll-Paque PLUS in a 50 mL conical tube and centrifuged for 15 min at 1,600 rpm. The interface cells were collected, washed with media, separated by centrifugation at 1,200 rpm. The cell pellet was resuspended in serum free media supplemented with growth factors. 10,000 cells/wells were plated in a 96 well plate and incubated at 37° C., 5% CO2, 95% air and 100% relative humidity overnight. The cytotoxicity assay was conducted as above. IC50 values represent absolute IC50.

The subject of experiment [14] is KM-12. The experiment is described as follows: Cell viability assay (CellTiter-Blue/CellTiter-Glow). The settings on record: Homo sapiens, KM12; colon carcinoma cell line KM-12; absolute IC50. The method, then: as §1, §2, §3
Background: The colour change of resazurin is a common sign of viable cells or microbes.

A value given as a limit tells only on which side of the number the result lay.

Usually IC50 stands for the concentration needed to halve the response being measured. Low readings indicate greater potency, high ones weaker potency.

Turning to `O=c1cc(-c2ccc(CCCC[P+](c3ccccc3)(c3ccccc3)c3ccccc3)cc2)oc2c(O)c(O)ccc12` [SND118, 4-[4-(7,8-dihydroxy-4-oxo-chromen-2-yl)phenyl]butyltriphenyl-phosphonium bromide], the IC50 in experiment [1] is 0.14 µM; in experiment [2], 3.3 µM; in experiment [3], 0.29 µM; in experiment [4] it was 15.6 µM; in experiment [5], 1.9 µM; in experiment [6], 6.35 µM. Further, the IC50 amounted to 10.3 µM in [7]; 12.5 µM in experiment [8]; 1.47 µM in experiment [9]; 1.76 µM in [10]; 7.3 µM in experiment [11]; 1.28 µM in experiment [12].
`O=c1cc(-c2ccc(CCCC[P+](c3ccccc3)(c3ccccc3)c3ccccc3)cc2)oc2c3c(ccc12)OCO3.[Br-]` [SND123, 4-[4-(6-oxo-[1,3]dioxolo[4,5-h]chromen-8-yl)phenyl]butyl-triphenylphosphonium bromide]: the IC50 in [13] was < 20 µM; in [2] it was 9.3 µM; in experiment [14] it was 3 µM; in experiment [3] it was 5.04 µM; in experiment [4] it was 3.15 µM; in [5] it was 1.32 µM. In addition, the IC50 amounted to 9.3 µM in experiment [7]; 8.08 µM in experiment [8]; 1.14 µM in experiment [9]; 0.87 µM in experiment [10]; 2.36 µM in experiment [11].
As for `CCNC(=O)Oc1ccc2c(=O)cc(-c3ccc(CCCC[P+](c4ccccc4)(c4ccccc4)c4ccccc4)cc3)oc2c1OC(=O)NCC.[Br-]` [SND124, 4-[4-[7,8-Bis(ethylcarbamoyloxy)-4-oxo-chromen-2-yl]phenyl]-butyltriphenylphosphonium bromide], the IC50 is < 20 µM in experiment [13]; 0.02 µM in experiment [1]; 10 µM in experiment [2]; 2.7 µM in experiment [14]; 4.8 µM in experiment [5]; 3.4 µM in [6]. For the same compound, the IC50 in experiment [7] was 2.96 µM; in experiment [8] it was 11.2 µM; in [10], 1.18 µM; in experiment [12], 4.27 µM.
In the case of `CCNC(=O)Oc1ccc2c(=O)cc(-c3ccc(CCCC[P+](c4ccccc4)(c4ccccc4)c4ccccc4)cc3)oc2c1O.[Br-]` [SND126A, 4-[4-[7-(Ethylcarbamoyloxy)-8-hydroxy-4-oxo-chromen-2-yl]phenyl]butyltriphenylphosphonium bromide], the IC50 in experiment [13] is < 20 µM; in experiment [14] it was 3.2 µM; in experiment [4], 10.7 µM; in experiment [5] it was 0.96 µM; in experiment [11] it was 6.54 µM.
Consider `CC(C)NC(=O)Oc1ccc2c(=O)cc(-c3ccc(CCCC[P+](c4ccccc4)(c4ccccc4)c4ccccc4)cc3)oc2c1O` [SND127, 4-[4-[7-(Isopropylcarbamoyloxy)-8-hydroxy-4-oxo-chromen-2-yl]phenyl]butyltriphenylphosphonium bromide], for which the 50% inhibitory concentration (IC50) was 1.23 µM in experiment [1]; 5.58 µM in experiment [3]; 11.9 µM in [4]; 1.81 µM in experiment [5]; 11.5 µM in experiment [6]; 6.4 µM in [7]. The IC50 in [8] is 5.3 µM; in [9], 7.13 µM; in experiment [10], 3.8 µM; in experiment [11], 5.7 µM; in experiment [12] it was 12.7 µM.
As to `COc1c(O)ccc2c(=O)cc(-c3ccc(CCCC[P+](c4ccccc4)(c4ccccc4)c4ccccc4)cc3)oc12.[Br-]` [SND140, (4-(4-(7-hydroxy-8-methoxy-4-oxo-4H-chromen-2-yl)phenyl)butyl)triphenylphosphonium bromide], the IC50 was < 20 µM in experiment [13]; 5.6 µM in experiment [14]; 10.8 µM in experiment [3]; 9.5 µM in experiment [4]; 14.2 µM in experiment [7]; 3.8 µM in [9]. For the same compound, the IC50 is 5.4 µM in experiment [10] and 8.87 µM in experiment [11].
